13 compounds from patent US20110098296A1, “Thiazole And Oxazole Kinase Inhibitors” (priority 2007, published 2011) can be followed below.

Molecules are shown by their SMILES. Counter-ions that a name gives are not always drawn. Some results are limits rather than exact numbers.

Assay [1] concerns the target T1, EGFR (Homo sapiens, UniProt P00533).
T1 construct: made in house; host or cells: baculovirus expression system
Description: EGFR substrate phosphorylation assay (HTRF). It is filed as biochemical. The following applies: Method (A): Enzyme Mix incubated with compound at 20° C. for 1 hr, reaction started by adding Substrate Mix. The essentials: (§1)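 Baculovirus-expressed kinase (0.8 nM EGFR or 10 nM ErbB2 in enzyme mix) with Peptide C 0.8 μM and ATP 20 μM (substrate-mix levels), MOPS pH 7.5, MnCl2; 90 min, 20 °C, HTRF anti-phosphotyrosine. Method A adds 1 h enzyme–compound preincubation; B none. pIC50, final compound 0.00027–47.6 μM.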
(In TR-FRET formats the signal depends on donor and acceptor labels being close together.)

In assay [2] the target is T2, ErbB2 (Homo sapiens, UniProt P04626).
T2 construct: made in house; host or cells: baculovirus expression system
T2 sequence (P04626 23-1255): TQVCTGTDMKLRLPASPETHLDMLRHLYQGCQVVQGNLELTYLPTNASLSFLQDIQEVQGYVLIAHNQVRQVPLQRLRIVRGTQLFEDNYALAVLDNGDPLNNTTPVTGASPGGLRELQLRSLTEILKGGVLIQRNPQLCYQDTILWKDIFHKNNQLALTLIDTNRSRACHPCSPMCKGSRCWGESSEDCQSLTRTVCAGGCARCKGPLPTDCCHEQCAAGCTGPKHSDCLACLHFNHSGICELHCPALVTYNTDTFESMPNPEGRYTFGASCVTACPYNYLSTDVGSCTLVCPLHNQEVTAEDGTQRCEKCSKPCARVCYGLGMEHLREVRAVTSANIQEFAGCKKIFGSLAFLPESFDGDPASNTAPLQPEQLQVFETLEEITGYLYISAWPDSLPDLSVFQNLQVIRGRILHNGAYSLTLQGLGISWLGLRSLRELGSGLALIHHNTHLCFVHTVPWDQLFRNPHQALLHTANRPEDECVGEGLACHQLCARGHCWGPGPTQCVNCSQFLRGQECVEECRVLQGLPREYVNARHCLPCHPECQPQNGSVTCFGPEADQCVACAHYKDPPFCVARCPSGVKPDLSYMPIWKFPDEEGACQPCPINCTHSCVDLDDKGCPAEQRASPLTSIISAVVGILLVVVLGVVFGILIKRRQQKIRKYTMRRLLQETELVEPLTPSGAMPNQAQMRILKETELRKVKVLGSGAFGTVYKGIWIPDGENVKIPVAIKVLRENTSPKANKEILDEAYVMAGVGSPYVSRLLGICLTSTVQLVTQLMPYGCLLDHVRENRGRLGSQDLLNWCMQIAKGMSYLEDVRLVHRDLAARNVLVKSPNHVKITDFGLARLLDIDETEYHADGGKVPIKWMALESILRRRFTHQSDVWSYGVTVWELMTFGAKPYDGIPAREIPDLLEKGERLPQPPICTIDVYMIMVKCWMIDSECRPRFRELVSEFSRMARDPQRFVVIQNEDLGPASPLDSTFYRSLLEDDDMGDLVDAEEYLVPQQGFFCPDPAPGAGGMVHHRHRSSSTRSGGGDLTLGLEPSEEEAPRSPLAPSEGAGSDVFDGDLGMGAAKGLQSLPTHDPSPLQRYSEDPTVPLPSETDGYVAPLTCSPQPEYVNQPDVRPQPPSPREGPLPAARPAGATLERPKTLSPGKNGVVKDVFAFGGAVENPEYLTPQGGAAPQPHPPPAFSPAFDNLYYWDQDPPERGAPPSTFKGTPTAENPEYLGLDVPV
Description: ErbB-2 substrate phosphorylation assay (HTRF). It is filed as biochemical. An outline of the steps:
as §1

The test system of assay [3] is HN5 tumor cells. The experiment in a line: Method A: Methylene Blue Growth Inhibition Assay, HN5. The conditions noted are these: Homo sapiens, 72 h, 3 days. It is filed as cell-based. On the procedure: (§2) Human breast (BT474) and head and neck (HN5) tumor cells were cultured in low glucose DMEM (Life Technologies 12320-032) containing 10% fetal bovine serum (FBS). Human colon tumor cells (Colo205) were cultured in DMEM (Invitrogen, 10564) containing 10% FBS. The SV40 transformed human mammary epithelial cell line HB4a was transfected with either human H-ras cDNA (HB4a r4.2) or the human c-ErbB2 cDNA (HB4a c5.2). The HB4a clones were cultured in RPMI containing 10% FBS, insulin (5 g/mL), hydrocortisone (5 g/mL), supplemented with the selection agent hygromycin B (50 g/mL). All lines were grown in a humidified incubator at 37° C. in 95% air, 5% CO2. Cells were harvested using trypsin/EDTA, counted using a haemocytometer, and plated in 100 μL of the appropriate media, at the following densities, in a 96-well tissue culture plate (Falcon 3075): BT474 10,000 cells/well, HN5 3,000 cells/well. The next day, compounds were diluted in DMEM containing […] gentamicin, at twice the final required concentration, from 10 mM stock solutions in DMSO. 100 μl/well of these dilutions were added to the 100 μL of media currently on the cell plates. Medium containing 0.6% DMSO was added to control wells. Compounds diluted in DMEM were added to all cell lines. The final concentration of DMSO in all wells was 0.3%. Cells were returned to the incubator (37° C., […]) for 3 days. Medium was then removed by aspiration. Cell biomass was estimated by staining cells with 90 μL/well methylene blue (Sigma M9140, 0.5% in 1:1 EtOH:H2O), and incubation at room temperature for at least 30 minutes. Stain was removed, and the plates rinsed by immersion in deionized H2O and air-dried. To release stain from the cells 100 μL of solubilization solution were added (1% N-lauroyl sarcosine, sodium salt, Sigma L5125, in PBS), and plates were shaken gently for about 30 minutes. Optical density at 620 nm was measured on a microplate reader. Percent inhibition of cell growth was calculated relative to vehicle-treated control wells. Concentration of compound that inhibits 50% of control cell growth (IC50) was interpolated using nonlinear regression (Levenberg-Marquardt) and the equation,
(§3) y=Vmax*(1−(x/(K+x)))+Y2, where “K” was equal to the IC50.

The test system of assay [4] is BT474 tumor cells. Description: Method A: Methylene Blue Growth Inhibition Assay, BT474. It counts as cell-based. The following applies: Homo sapiens, BT-474, 72 h, 3 days. How it is done:
as §2, §3

The subject of assay [5] is Colo205 tumor cells. Description: Method A: Methylene Blue Growth Inhibition Assay, Colo205. It counts as cell-based. The conditions noted are these: Homo sapiens, COLO 205, 72 h, 3 days. On the procedure: as §2, §3
For assay [6], the system named is HN5 tumor cells. Description: Method B: CellTiter-Glo Growth Inhibition Assay, HN5. It is filed as cell-based. The following applies: Homo sapiens, 72 h, 3 days. How it is done: (§4) Human breast tumor cells (BT474) were cultured in RPMI, (Invitrogen, 22400) containing 10% fetal bovine serum (FBS). Human head and neck tumor cells (HN5) were cultured in low glucose DMEM (Invitrogen, 12320) containing 10% FBS. Human colon tumor cells (Colo205) were cultured in DMEM (Invitrogen, 10564) containing 10% FBS. Human melanoma cancer cells (SK-MEL-28) were incubated in DMEM (Invitrogen). All cell lines were maintained at 37° C. in a humidified 5% CO2, 95% air incubator. Cells were harvested using trypsin/EDTA, counted using a haemocytometer, and plated in 30 μL of the appropriate media described above, at the following densities, in a half-area, black-walled, 96-well tissue culture plate (Corning 3882): BT474 3,000 cells/well, HN5 500 cells/well, Colo205 3,000 cells/well, and SK-MEL-28 500 cells/well). The next day, compounds were diluted in DMEM containing […] gentamicin, from 10 mM stock solutions in DMSO. 30 μL/well of these dilutions were added to the 30 μL/well of media currently on the cell plates. Medium containing 0.6% DMSO was added to control wells. The final concentration of DMSO in all wells was 0.3%. Cells were incubated at 37° C., 5% CO2 for 3 days. Cell biomass was estimated using CellTiter-Glo® reagent (Promega G7571). Briefly, plates were removed from the incubator and allowed to equilibrate to rt for 30 minutes. 25-60 μL of CellTiter-Glo® reagent were added to each well of the treated cells and plates were shaken on an orbital plate shaker for 2 mins. Plates were incubated without shaking for 30 more mins and read in a luminometer with an integration time of 0.5 seconds per well. Percent inhibition of cell growth was calculated relative to vehicle-treated control wells. Concentration of compound that inhibits 50% of vehicle control cell growth (IC50) was interpolated using nonlinear regression (Levenberg-Marquardt) and the equation, y=V max*(1−(x/(K+x)))+Y2, where “K” was equal to the IC50.
A general note: ATP-based viability assays read luminescence as a measure of living cells.

In assay [7] the test system is BT474 tumor cells. Description: Method B: CellTiter-Glo Growth Inhibition Assay, BT474. It counts as cell-based. The following applies: Homo sapiens, BT-474, 72 h, 3 days. On the procedure: as §4
In assay [8] the test system is Colo205 tumor cells. Description: Method B: CellTiter-Glo Growth Inhibition Assay, Colo205. It counts as cell-based. The following applies: Homo sapiens, COLO 205, 72 h, 3 days. On the procedure:
as §4

Setting [9] is: Method (A): Enzyme Mix incubated with compound at 20° C. for 1 hr, reaction started by adding Substrate Mix.

T1 sequence (P00533 25-1210): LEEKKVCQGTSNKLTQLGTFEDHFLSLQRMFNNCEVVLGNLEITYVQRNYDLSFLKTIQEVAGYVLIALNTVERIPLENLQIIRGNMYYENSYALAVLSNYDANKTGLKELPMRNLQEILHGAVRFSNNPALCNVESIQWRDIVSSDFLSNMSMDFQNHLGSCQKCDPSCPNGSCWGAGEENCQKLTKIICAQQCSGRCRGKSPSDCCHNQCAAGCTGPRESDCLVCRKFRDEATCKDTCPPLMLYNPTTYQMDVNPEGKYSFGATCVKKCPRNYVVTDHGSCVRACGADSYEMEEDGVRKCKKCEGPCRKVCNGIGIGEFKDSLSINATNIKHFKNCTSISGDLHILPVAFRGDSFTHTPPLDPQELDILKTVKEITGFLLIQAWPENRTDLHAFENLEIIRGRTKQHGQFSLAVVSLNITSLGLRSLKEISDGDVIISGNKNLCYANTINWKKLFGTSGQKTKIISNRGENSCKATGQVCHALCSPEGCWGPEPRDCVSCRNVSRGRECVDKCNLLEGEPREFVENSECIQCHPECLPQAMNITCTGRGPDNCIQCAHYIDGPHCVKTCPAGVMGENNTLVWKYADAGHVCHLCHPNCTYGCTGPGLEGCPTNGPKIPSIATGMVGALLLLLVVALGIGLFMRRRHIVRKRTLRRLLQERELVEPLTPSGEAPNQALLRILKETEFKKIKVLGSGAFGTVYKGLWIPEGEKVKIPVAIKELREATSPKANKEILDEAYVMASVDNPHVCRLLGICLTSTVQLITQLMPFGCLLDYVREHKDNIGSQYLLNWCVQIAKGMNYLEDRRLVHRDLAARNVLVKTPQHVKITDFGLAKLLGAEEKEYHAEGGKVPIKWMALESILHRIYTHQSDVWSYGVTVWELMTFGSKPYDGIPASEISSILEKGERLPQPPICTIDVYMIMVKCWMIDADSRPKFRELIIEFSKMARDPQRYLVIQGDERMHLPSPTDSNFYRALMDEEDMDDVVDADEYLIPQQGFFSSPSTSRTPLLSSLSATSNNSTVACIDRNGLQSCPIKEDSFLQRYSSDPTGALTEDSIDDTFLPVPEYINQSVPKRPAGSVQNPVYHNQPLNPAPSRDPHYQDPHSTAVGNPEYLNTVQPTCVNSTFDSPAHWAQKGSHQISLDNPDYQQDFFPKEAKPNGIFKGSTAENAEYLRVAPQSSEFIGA

As for `O=C(Nc1cccc(-c2nc(NCCN3CCOCC3)sc2-c2ccnc(Nc3ccc4c(c3)CNCC4)n2)c1)c1c(F)cccc1F` [Example 1, 2,6-Difluoro-N-(3-{2-{[2-(4-morpholinyl)ethyl]amino}-5-[2-(1,2,3,4-tetrahydro-7-isoquinolinylamino)-4-pyrimidinyl]-1,3-thiazol-4-yl}phenyl)benzamide], the IC50 (commonly the midpoint of a concentration-inhibition curve) was less than 100 nM in assay [1]; less than 100 nM in assay [2] (setting [9]); less than 100 nM in assay [3]; less than 100 nM in assay [4]; 100 to 1000 nM in assay [5].
`COCCOc1ccc(Nc2nccc(-c3sc(N)nc3-c3cccc(NC(=O)c4c(F)cccc4F)c3)n2)cc1F` [Example 3]: the IC50 in assay [1] is less than 100 nM; in assay [2] (setting [9]), less than 100 nM; in assay [3] it was less than 100 nM; in assay [4], less than 100 nM; in assay [5] it was 100 to 1000 nM.
As for `Nc1nc(-c2cccc(NC(=O)c3c(F)cccc3F)c2)c(-c2ccnc(Nc3cccc(-c4cnco4)c3)n2)s1` [Example 14, N-{3-[2-Amino-5-(2-{[3-(1,3-oxazol-5-yl)phenyl]amino}-4-pyrimidinyl)-1,3-thiazol-4-yl]phenyl}-2,6-difluorobenzamide], the IC50 in assay [1], in assay [2] (setting [9]), in assay [3], in assay [4] and in assay [5] was less than 100 nM each time.
For `O=C(Cc1cccs1)Nc1cccc(-c2ncsc2-c2ccnc(Nc3ccc4c(c3)OCC(=O)N4)n2)c1` [Example 85, N-[3-(5-{2-[(3-Oxo-3,4-dihydro-2H-1,4-benzoxazin-7-yl)amino]-4-pyrimidinyl}-1,3-thiazol-4-yl)phenyl]-2-(2-thienyl)acetamide hydrochloride], the IC50 in assay [1] is less than 100 nM; in assay [2] (setting [9]) it was less than 100 nM; in assay [6], 100 to 1000 nM; in assay [7], 100 to 1000 nM; in assay [8], greater than 1000 nM.
Consider `O=C(Cc1cccs1)Nc1cccc(-c2ncsc2-c2ccnc(Nc3ccc4c(c3)NC(=O)CO4)n2)c1` [Example 86, N-[3-(5-{2-[(3-Oxo-3,4-dihydro-2H-1,4-benzoxaziN-6-yl)amino]-4-pyrimidinyl}-1,3-thiazol-4-yl)phenyl]-2-(2-thienyl)acetamide hydrochloride], for which the IC50 in assay [1] is less than 100 nM; in assay [2] (setting [9]) it was 100 to 1000 nM; in assay [6], 100 to 1000 nM; in assay [7], 100 to 1000 nM; in assay [8], 100 to 1000 nM.
With `O=C(Nc1cccc(-c2ncsc2-c2ccnc(Nc3cccc(F)c3)n2)c1)c1c(F)cccc1F` [Example 88], the IC50 was 100 to 1000 nM in assay [1]; 100 to 1000 nM in assay [2] (Method (B): Substrate Mix added to compound first, reaction started by adding Enzyme Mix); less than 100 nM in assay [3]; 100 to 1000 nM in assay [4].
In the case of `CN(C)CCOc1ccc(Nc2nccc(-c3scnc3-c3cccc(NC(=O)c4c(F)cccc4F)c3)n2)cc1Cl` [Example 89], the IC50 is less than 100 nM in assay [1]; less than 100 nM in assay [2] (setting [9]); less than 100 nM in assay [6]; less than 100 nM in assay [7]; 100 to 1000 nM in assay [8].
On to `O=C(Nc1cccc(-c2ncsc2-c2ccnc(Nc3ccc4c(c3)CNCC4)n2)c1)c1c(F)cccc1F` [Example 91, 2,6-Difluoro-N-(3-{5-[2-(1,2,3,4-tetrahydro-7-isoquinolinylamino)-4-pyrimidinyl]-1,3-thiazol-4-yl}phenyl)benzamide], for which the IC50 in assay [1] is less than 100 nM; in assay [2] (setting [9]), less than 100 nM; in assay [6], less than 100 nM; in assay [7], less than 100 nM; in assay [8], 100 to 1000 nM.
Consider `CCN(CC)CCOc1cccc(Nc2nccc(-c3scnc3-c3cccc(NC(=O)c4c(F)cccc4F)c3)n2)c1` [Example 92, N-[3-(5-{2-[(3-{[2-(Diethylamino)ethyl]oxy}phenyl)amino]-4-pyrimidinyl}-1,3-thiazol-4-yl)phenyl]-2,6-difluorobenzamide-formic acid], for which the IC50 in assay [1] is less than 100 nM; in assay [2] (setting [9]), less than 100 nM; in assay [6] it was less than 100 nM; in assay [7], less than 100 nM; in assay [8], 100 to 1000 nM.
Regarding `O=C1COc2cc(Nc3nccc(-c4scnc4-c4cccc(NC(=O)c5cc(F)ccc5F)c4)n3)ccc2N1` [Example 98, 2,5-Difluoro-N-[3-(5-{2-[(3-oxo-3,4-dihydro-2H-1,4-benzoxaziN-7-yl)amino]-4-pyrimidinyl}-1,3-thiazol-4-yl)phenyl]benzamide hydrochloride], the IC50 in assay [1] was less than 100 nM; in assay [2] (setting [9]) it was less than 100 nM; in assay [6] it was less than 100 nM; in assay [7] it was less than 100 nM; in assay [8] it was greater than 1000 nM.
For the compound `O=C1COc2ccc(Nc3nccc(-c4scnc4-c4cccc(NC(=O)c5cc(F)ccc5F)c4)n3)cc2N1` [Example 99, 2,5-Difluoro-N-[3-(5-{2-[(3-oxo-3,4-dihydro-2H-1,4-benzoxaziN-6-yl)amino]-4-pyrimidinyl}-1,3-thiazol-4-yl)phenyl]benzamide hydrochloride], the IC50 in assay [1] is less than 100 nM; in assay [2] (setting [9]), less than 100 nM; in assay [6], 100 to 1000 nM; in assay [7], 100 to 1000 nM; in assay [8] it was greater than 1000 nM.
On to `Cc1nc(-c2cccc(NC(=O)c3c(F)cccc3F)c2)c(-c2ccnc(Nc3cccc(F)c3)n2)s1` [Example 101, 2,6-Difluoro-N-[3-(5-{2-[(3-fluorophenyl)amino]-4-pyrimidinyl}-2-methyl-1,3-thiazol-4-yl)phenyl]benzamide], for which the IC50 in assay [1] was less than 100 nM; in assay [2] (setting [9]), less than 100 nM; in assay [6], less than 100 nM; in assay [7], less than 100 nM; in assay [8], greater than 1000 nM.
With `Cc1nc(-c2cccc(NC(=O)Cc3cccs3)c2)c(-c2ccnc(Nc3cccc(F)c3)n2)s1` [Example 138, N-[3-(5-{2-[(3-Fluorophenyl)amino]-4-pyrimidinyl}-2-methyl-1,3-thiazol-4-yl)phenyl]-2-(2-thienyl)acetamide], the IC50 in assay [1] is 100 to 1000 nM; in assay [2] (setting [9]), greater than 1000 nM; in assay [6], greater than 1000 nM; in assay [7], greater than 1000 nM; in assay [8] it was greater than 1000 nM.
